Data as given in patent US5262411A, “Isocephem derivatives, and antimicrobial composition containing the derivatives” (Otsuka Pharmaceutical Co., Ltd., priority 1989, dated 1993).
≈ marks a conversion by molar mass, not a printed value. Like-named read-outs stand apart in the source and are kept apart here.

Experiments:
Format in all cases: cell-based
S. aureaus FDA-209P = experiment: MIC against S. aureaus FDA-209P by the plate diluted method; conditions: Staphylococcus aureus, FDA209P
Procedure: (§1) In order to investigate the in vitro activity of the test compounds against various bacteria, the minimal inhibitory concentration (MIC) values were determined by the plate diluted method (See CHEMOTHERAPY, 22, 1126-1128, 1974.)
(§2) Each strain was adjusted to 1×10^6 cells/ml (O.D. 600 mμ, 0.07 to 0.16).

P. aeruginosa E-2 = experiment: MIC against P. aeruginosa E-2 by the plate diluted method; conditions: Pseudomonas aeruginosa, E2
Procedure: as §1, §2

E. coli NIHJ JC-2 = experiment: MIC against E. coli NIHJ JC-2 by the plate diluted method; conditions: Escherichia coli, NIHJJC2
Procedure: as §1, §2

P. aeruginosa ATCC-10145 = experiment: MIC against P. aeruginosa ATCC-10145 by the plate diluted method; conditions: Pseudomonas aeruginosa, ATCC10145
Procedure: as §1, §2

K. pneumoniae NCTC-9632 = experiment: MIC against K. pneumoniae NCTC-9632 by the plate diluted method; conditions: Klebsiella pneumoniae, NCTC9632
Procedure: as §1, §2

M. moganii IIDkono = experiment: MIC against M. moganii IIDkono by the plate diluted method
Procedure: as §1, §2

S. marcescens IFO 12648 = experiment: MIC against S. marcescens IFO 12648 by the plate diluted method; conditions: Serratia marcescens, IFO12648
Procedure: as §1, §2

A. calcoaceticus Ac-54 = experiment: MIC against A. calcoaceticus Ac-54 by the plate diluted method; conditions: Acinetobacter calcoaceticus, AC54
Procedure: as §1, §2

[1] = S. aureaus FDA-209P, 1×10^6 cells/ml, read-out: MIC
[2] = P. aeruginosa E-2, 1×10^6 cells/ml, read-out: MIC
[3] = E. coli NIHJ JC-2, 1×10^6 cells/ml, read-out: MIC
[4] = P. aeruginosa ATCC-10145, 1×10^6 cells/ml, read-out: MIC
[5] = K. pneumoniae NCTC-9632, 1×10^6 cells/ml, read-out: MIC
[6] = S. marcescens IFO 12648, 1×10^6 cells/ml, read-out: MIC
[7] = A. calcoaceticus Ac-54, 1×10^6 cells/ml, read-out: MIC

Row | MIC (M. moganii IIDkono; M. moganii IIDkono, 1×10^6 cells/ml, read-out: MIC) [µg/mL] | SMILES | MIC (S. aureaus FDA-209P; [1]) [µg/mL] | MIC (P. aeruginosa E-2; [2]) [µg/mL] | MIC (E. coli NIHJ JC-2; [3]) [µg/mL] | MIC (P. aeruginosa ATCC-10145; [4]) [µg/mL] | MIC (K. pneumoniae NCTC-9632; [5]) [µg/mL] | MIC (S. marcescens IFO 12648; [6]) [µg/mL] | MIC (A. calcoaceticus Ac-54; [7]) [µg/mL] | MIC (E. coli NIHJ JC-2) [µg/mL] | MIC (M. moganii IIDkono) [µg/mL] | MIC (S. aureaus FDA-209P) [µg/mL] | MIC (P. aeruginosa E-2) [µg/mL] | MIC (P. aeruginosa ATCC-10145) [µg/mL] | MIC (K. pneumoniae NCTC-9632) [µg/mL] | MIC (S. marcescens IFO 12648) [µg/mL] | MIC (A. calcoaceticus Ac-54) [µg/mL]
1 | 0.024 (≈ 0.0347 µM) | Nc1nc(/C(=N/OCc2cc(=O)c(O)cn2O)C(=O)N[C@@H]2C(=O)N3C(C(=O)[O-])=C(CSc4cc[n+](CC(=O)O)cc4)SC[C@H]23)ns1 [No. 24, (6S,7S)-7-[(Z)-2-(5-amino-1,2,4-thiadiazol-3-yl)-2-(1,5-dihydroxy-4-pyridone-2-ylmethoxyimino)acetamide]-3-(1-carboxymethylpyridinium-4-ylthiomethyl)isocephem-4-carboxylate] | 12.5 (≈ 18.1 µM) | 0.2 (≈ 0.29 µM) | 0.1 (≈ 0.145 µM) | 0.1 (≈ 0.145 µM) | 0.024 (≈ 0.0347 µM) | 0.024 (≈ 0.0347 µM) | 0.39 (≈ 0.565 µM) |  |  |  |  |  |  |  | 
2 |  | Nc1nc(/C(=N/OCc2cc(=O)c(O)cn2O)C(=O)N[C@@H]2C(=O)N3C(C(=O)[O-])=C(CSc4cc[n+](CC(=O)O)cc4)CS[C@H]23)ns1 [No. 25, (6R,7R)-7-[(Z)-2-(5-amino-1,2,4-thiadiazol-3-yl)-2-(1,5-dihydroxy-4-pyridone-2-ylmethoxyimino)acetamide]-3-(1-carboxymethylpyridinium-4-ylthiomethyl)-3-cephem-4-carboxylate] | 6.25 (≈ 9.05 µM) | 0.2 (≈ 0.29 µM) |  | 0.1 (≈ 0.145 µM) | 0.024 (≈ 0.0347 µM) | 0.024 (≈ 0.0347 µM) | 0.39 (≈ 0.565 µM) | 0.2 (≈ 0.29 µM) | 0.05 (≈ 0.0724 µM) |  |  |  |  |  | 
3 |  | CC(C)(O/N=C(\C(=O)N[C@@H]1C(=O)N2C(C(=O)[O-])=C(C[n+]3ccccc3)CS[C@H]12)c1csc(N)n1)C(=O)O [CAZ, Ceftazizime, reference compound] |  |  |  |  |  |  |  | 0.2 (≈ 0.366 µM) | 0.05 (≈ 0.0915 µM) | 3.13 (≈ 5.73 µM) | 1.56 (≈ 2.85 µM) | 0.78 (≈ 1.43 µM) | 0.05 (≈ 0.0915 µM) | 0.024 (≈ 0.0439 µM) | 1.56 (≈ 2.85 µM)
4 |  | Cc1nc(SCC2=C(C(=O)O)N3C(=O)[C@@H](NC(=O)/C(=N\OCc4cc(=O)c(O)cn4O)c4nsc(N)n4)[C@H]3SC2)sc1CC(=O)O [No. 19, (6R,7R)-7-[(Z)-2-(5-amino-1,2,4-thiadiazol-3-yl)-2-(1,5-dihydroxy-4-pyridone-2-ylmethoxyimino)acetamide]-3-(5-carboxymethyl-4-methylthiazol-2-ylthiomethyl)-3-cephem-4-carboxylic acid] | 100 (≈ 141 µM) | 0.1 (≈ 0.141 µM) | 0.1 (≈ 0.141 µM) | 0.05 (≈ 0.0703 µM) | 0.024 (≈ 0.0338 µM) | 0.024 (≈ 0.0338 µM) | 0.05 (≈ 0.0703 µM) |  | 0.05 (≈ 0.0703 µM) |  |  |  |  |  | 
5 |  | Cc1nc(SCC2=C(C(=O)O)N3C(=O)[C@@H](NC(=O)/C(=N\OCc4cc(=O)c(O)cn4O)c4nsc(N)n4)[C@H]3CS2)sc1CC(=O)O [No. 18, (6S,7S)-7-[(Z)-2-(5-amino-1,2,4-thiadiazol-3-yl)-2-(1,5-dihydroxy-4-pyridone-2-ylmethoxyimino)acetamide]-3-(5-carboxymethyl-4-methylthiazol-2-ylthiomethyl)isocephem-4-carboxylic acid] | 100 (≈ 141 µM) | 0.1 (≈ 0.141 µM) | 0.1 (≈ 0.141 µM) | 0.1 (≈ 0.141 µM) | 0.024 (≈ 0.0338 µM) | 0.024 (≈ 0.0338 µM) | 0.1 (≈ 0.141 µM) |  | 0.05 (≈ 0.0703 µM) |  |  |  |  |  | 
